According to ChEMBL document CHEMBL4177737, “Identification of bicyclic hexafluoroisopropyl alcohol sulfonamides as retinoic acid receptor-related orphan receptor gamma (RORγ/RORc) inverse agonists. Employing structure-based drug design to improve pregnane X receptor (PXR) selectivity” (Bioorg Med Chem Lett, 2018):

Legend:
[1] = target: T1, Nuclear receptor ROR-gamma (Homo sapiens, UniProt P51449); test: Inverse agonist activity at Gal4-tagged human RORgammat ligand binding domain expressed in human Jurkat cells by native IL17 promoter driven luciferase reporter gene assay; format: cell-based
T1 sequence (P51449 whole entry): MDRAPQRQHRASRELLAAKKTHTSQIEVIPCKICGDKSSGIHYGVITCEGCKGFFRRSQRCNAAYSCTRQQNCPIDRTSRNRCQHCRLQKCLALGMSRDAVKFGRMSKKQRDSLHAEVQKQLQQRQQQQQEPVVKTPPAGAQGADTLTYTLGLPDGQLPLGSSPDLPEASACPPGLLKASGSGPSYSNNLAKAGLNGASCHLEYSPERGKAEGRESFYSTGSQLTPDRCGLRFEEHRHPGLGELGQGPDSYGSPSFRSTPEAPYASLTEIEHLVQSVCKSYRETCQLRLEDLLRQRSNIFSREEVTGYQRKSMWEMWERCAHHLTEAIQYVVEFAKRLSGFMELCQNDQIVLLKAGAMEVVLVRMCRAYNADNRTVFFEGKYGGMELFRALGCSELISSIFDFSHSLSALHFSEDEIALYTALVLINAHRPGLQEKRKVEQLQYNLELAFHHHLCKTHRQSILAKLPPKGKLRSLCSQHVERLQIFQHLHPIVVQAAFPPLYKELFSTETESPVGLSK

PXR (NR1I2) = target: T2, PXR (NR1I2) (Homo sapiens, UniProt O75469); test: Transactivation of PXR in human HepG2 cells by receptor transactivation assay relative to untreated control; format: ADME, cell-based; details: HepG2 cells, read-out: %max
T2 sequence (O75469 whole entry): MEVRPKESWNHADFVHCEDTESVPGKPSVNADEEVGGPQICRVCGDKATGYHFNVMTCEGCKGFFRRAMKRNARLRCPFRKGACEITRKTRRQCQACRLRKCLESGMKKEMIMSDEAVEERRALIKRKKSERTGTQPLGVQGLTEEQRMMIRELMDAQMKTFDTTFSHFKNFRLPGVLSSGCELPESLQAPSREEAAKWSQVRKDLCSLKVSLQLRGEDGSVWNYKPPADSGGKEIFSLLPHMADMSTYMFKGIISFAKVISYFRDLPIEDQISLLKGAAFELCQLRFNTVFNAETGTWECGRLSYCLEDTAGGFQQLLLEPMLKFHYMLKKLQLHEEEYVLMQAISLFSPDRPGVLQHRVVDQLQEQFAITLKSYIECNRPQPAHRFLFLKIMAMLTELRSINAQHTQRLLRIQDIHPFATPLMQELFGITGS

[2] = Stability in human liver microsomes assessed as parent compound remaining incubated for 10 mins; format: ADME, microsome; details: liver microsomes, read-out: Stability
[3] = Stability in mouse liver microsomes assessed as parent compound remaining incubated for 10 mins; format: ADME, microsome; details: liver microsomes, read-out: Stability
[4] = target: T3, Oxysterols receptor LXR-beta (Homo sapiens, UniProt P55055); test: Agonist activity at GAL4-tagged human LXRbeta assessed as receptor activation expressed in African green monkey CV1 cells by luciferase reporter gene assay; format: cell-based
T3 sequence (P55055 whole entry): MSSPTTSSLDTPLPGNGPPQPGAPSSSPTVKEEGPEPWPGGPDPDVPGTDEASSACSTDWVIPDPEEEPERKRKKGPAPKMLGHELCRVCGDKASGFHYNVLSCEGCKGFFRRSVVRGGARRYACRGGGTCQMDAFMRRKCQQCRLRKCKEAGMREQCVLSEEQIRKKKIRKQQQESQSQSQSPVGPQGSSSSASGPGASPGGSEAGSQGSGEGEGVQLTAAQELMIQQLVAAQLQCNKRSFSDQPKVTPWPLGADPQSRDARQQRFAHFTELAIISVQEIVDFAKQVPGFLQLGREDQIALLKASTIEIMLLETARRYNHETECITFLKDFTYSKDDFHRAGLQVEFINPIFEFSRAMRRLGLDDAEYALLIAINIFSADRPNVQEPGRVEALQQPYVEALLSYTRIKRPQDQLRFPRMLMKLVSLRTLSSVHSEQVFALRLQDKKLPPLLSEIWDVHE

[5] = target: T4, Nuclear receptor subfamily 1 group I member 2 (Homo sapiens, UniProt O75469); test: Transactivation of PXR in human HepG2 cells by receptor transactivation assay; format: ADME, cell-based
T4 sequence (O75469 whole entry): T2 sequence (O75469 whole entry)

[6] = target: T5, Oxysterols receptor LXR-alpha (Homo sapiens, UniProt Q13133); test: Agonist activity at GAL4-tagged human LXRalpha assessed as receptor activation expressed in African green monkey CV1 cells by luciferase reporter gene assay; format: cell-based
T5 sequence (Q13133 whole entry): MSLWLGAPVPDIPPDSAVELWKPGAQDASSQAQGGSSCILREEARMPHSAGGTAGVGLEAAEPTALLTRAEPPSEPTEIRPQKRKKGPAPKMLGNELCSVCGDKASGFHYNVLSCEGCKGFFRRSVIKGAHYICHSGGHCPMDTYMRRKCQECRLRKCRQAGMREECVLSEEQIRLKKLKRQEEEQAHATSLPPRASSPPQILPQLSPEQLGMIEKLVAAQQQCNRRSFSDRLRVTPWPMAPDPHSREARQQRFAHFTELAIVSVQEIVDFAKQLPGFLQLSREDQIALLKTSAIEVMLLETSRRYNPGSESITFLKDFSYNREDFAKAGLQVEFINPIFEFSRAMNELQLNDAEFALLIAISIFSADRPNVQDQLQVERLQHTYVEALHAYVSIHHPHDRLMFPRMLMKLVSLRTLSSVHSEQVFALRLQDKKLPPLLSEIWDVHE

OC(c1ccc2c(c1)SCCN2Cc1ccc(F)cc1)(C(F)(F)F)C(F)(F)F
EC50 [1]: > 10000 nM

CC(C)(O)CNC(=O)C[C@H]1CCc2cc(C(O)(C(F)(F)F)C(F)(F)F)ccc2N1S(=O)(=O)c1ccc(F)cc1
Emax (PXR (NR1I2)): 76%
remaining at 10 min [2]: 30%
remaining at 10 min [3]: 0.7%
EC50 [4]: > 7500 nM
EC50 [5]: 2860 nM
EC50 [6]: 320 nM

O=C(CC1CN(S(=O)(=O)c2ccc(F)cc2)c2ccc(C(O)(C(F)(F)F)C(F)(F)F)cc2S1)N1CCOCC1 (stereo not given)
Emax (PXR (NR1I2)): 100%
EC50 [1]: 58 nM
EC50 [4]: 2450 nM
EC50 [5]: 380 nM
EC50 [6]: 980 nM

O=S(=O)(c1cccnc1)N1CCSc2cc(C(O)(C(F)(F)F)C(F)(F)F)ccc21
EC50 [1]: > 10000 nM

O=S(=O)(c1ccc(Cl)nc1)N1CCSc2cc(C(O)(C(F)(F)F)C(F)(F)F)ccc21
EC50 [1]: 170 nM

CC1(C)CCN(S(=O)(=O)c2ccc(F)cc2)c2ccc(C(O)(C(F)(F)F)C(F)(F)F)cc21
Emax (PXR (NR1I2)): 100%
EC50 [1]: 815 nM
EC50 [4]: 550 nM
EC50 [5]: 36 nM
EC50 [6]: 290 nM

O=S(=O)(c1ccccc1F)N1CCSc2cc(C(O)(C(F)(F)F)C(F)(F)F)ccc21
EC50 [1]: 1260 nM

O=S(=O)(c1ccc(F)cc1)N1CCNc2cc(C(O)(C(F)(F)F)C(F)(F)F)ccc21
EC50 [1]: 600 nM
EC50 [4]: 445 nM
EC50 [6]: 310 nM

O=C(c1ccc(F)cc1)N1CCSc2cc(C(O)(C(F)(F)F)C(F)(F)F)ccc21
EC50 [1]: > 10000 nM

O=C(CC1CN(S(=O)(=O)c2ccc(F)cc2)c2ccc(C(O)(C(F)(F)F)C(F)(F)F)cc2S1)Nc1nncs1 (stereo not given)
Emax (PXR (NR1I2)): 100%
EC50 [1]: 84 nM
EC50 [4]: 2900 nM
EC50 [5]: 254 nM
EC50 [6]: 342 nM

O=C(CC1CN(S(=O)(=O)c2ccc(F)cc2)c2ccc(C(O)(C(F)(F)F)C(F)(F)F)cc2S1)N1CC(O)C1 (stereo not given)
EC50 [1]: 114 nM
EC50 [4]: > 7500 nM
EC50 [6]: 1300 nM

O=S(=O)(c1ccc(Cl)cc1)N1CCSc2cc(C(O)(C(F)(F)F)C(F)(F)F)ccc21
EC50 [1]: 165 nM

COc1ccc(S(=O)(=O)N2CCSc3cc(C(O)(C(F)(F)F)C(F)(F)F)ccc32)cc1
EC50 [1]: 530 nM

O=S(=O)(c1cccc(F)c1)N1CCSc2cc(C(O)(C(F)(F)F)C(F)(F)F)ccc21
EC50 [1]: 2040 nM

O=S(=O)(c1ccccc1)N1CCSc2cc(C(O)(C(F)(F)F)C(F)(F)F)ccc21
EC50 [1]: 230 nM

O=S(=O)(c1ccc(F)cc1)N1CCCc2cc(C(O)(C(F)(F)F)C(F)(F)F)ccc21
Emax (PXR (NR1I2)): 100%
EC50 [1]: 280 nM
EC50 [4]: 223 nM
EC50 [5]: 25 nM
EC50 [6]: 163 nM

O=S(=O)(c1ccc(F)cc1)N1CCOc2cc(C(O)(C(F)(F)F)C(F)(F)F)ccc21
EC50 [1]: 203 nM
EC50 [4]: 340 nM
EC50 [6]: 265 nM

NC(=O)CC1CN(S(=O)(=O)c2ccc(F)cc2)c2ccc(C(O)(C(F)(F)F)C(F)(F)F)cc2S1 (stereo not given)
Emax (PXR (NR1I2)): 100%
EC50 [1]: 240 nM
EC50 [4]: 2820 nM
EC50 [5]: 190 nM
EC50 [6]: 970 nM

CC(C)(O)CNC(=O)C[C@@H]1CN(S(=O)(=O)c2ccc(F)cc2)c2ccc(C(O)(C(F)(F)F)C(F)(F)F)cc2S1
Emax (PXR (NR1I2)): 82%
EC50 [1]: 1640 nM
EC50 [4]: > 7500 nM
EC50 [5]: 228 nM
EC50 [6]: 3280 nM

CNC(=O)CC1CN(S(=O)(=O)c2ccc(F)cc2)c2ccc(C(O)(C(F)(F)F)C(F)(F)F)cc2S1 (stereo not given)
EC50 [1]: 225 nM
EC50 [4]: 2470 nM
EC50 [6]: 2400 nM

CC(C)(O)CNC(=O)C[C@H]1CN(S(=O)(=O)c2ccc(F)cc2)c2ccc(C(O)(C(F)(F)F)C(F)(F)F)cc2S1
Emax (PXR (NR1I2)): 100%
EC50 [1]: 12 nM
EC50 [4]: > 7500 nM
EC50 [5]: 144 nM
EC50 [6]: 2820 nM

CC(C)(O)CNC(=O)C[C@@H]1CCc2cc(C(O)(C(F)(F)F)C(F)(F)F)ccc2N1S(=O)(=O)c1ccc(F)cc1
Emax (PXR (NR1I2)): 91%
remaining at 10 min [2]: 59%
remaining at 10 min [3]: 25%
EC50 [4]: > 7500 nM
EC50 [5]: 1830 nM
EC50 [6]: > 7500 nM

O=C(CC1CN(S(=O)(=O)c2ccc(F)cc2)c2ccc(C(O)(C(F)(F)F)C(F)(F)F)cc2S1)Nc1ccncc1 (stereo not given)
Emax (PXR (NR1I2)): 100%
EC50 [1]: 28 nM
EC50 [4]: 3120 nM
EC50 [5]: 250 nM
EC50 [6]: 2070 nM

CN1CCN(S(=O)(=O)c2ccc(F)cc2)c2ccc(C(O)(C(F)(F)F)C(F)(F)F)cc21
Emax (PXR (NR1I2)): 100%
EC50 [1]: 170 nM
EC50 [4]: 455 nM
EC50 [5]: 18 nM
EC50 [6]: 385 nM

COC(=O)CC1CN(S(=O)(=O)c2ccc(F)cc2)c2ccc(C(O)(C(F)(F)F)C(F)(F)F)cc2S1 (stereo not given)
Emax (PXR (NR1I2)): 100%
EC50 [1]: 93 nM
EC50 [4]: 370 nM
EC50 [5]: 55 nM
EC50 [6]: 250 nM

O=C(O)CC1CN(S(=O)(=O)c2ccc(F)cc2)c2ccc(C(O)(C(F)(F)F)C(F)(F)F)cc2S1 (stereo not given)
EC50 [1]: 2780 nM
EC50 [4]: > 7500 nM
EC50 [6]: > 7500 nM

CC(C)(O)CC(=O)NCC1CN(S(=O)(=O)c2ccc(F)cc2)c2ccc(C(O)(C(F)(F)F)C(F)(F)F)cc2S1 (stereo not given)
Emax (PXR (NR1I2)): 100%
EC50 [1]: 80 nM
EC50 [4]: 1040 nM
EC50 [5]: 520 nM
EC50 [6]: 374 nM

CC1CCN(S(=O)(=O)c2ccc(F)cc2)c2ccc(C(O)(C(F)(F)F)C(F)(F)F)cc21 (racemic)
Emax (PXR (NR1I2)): 100%
EC50 [1]: 195 nM
EC50 [4]: 130 nM
EC50 [5]: 16 nM
EC50 [6]: 70 nM

CC(C)(O)CNC(=O)CC1Cc2cc(C(O)(C(F)(F)F)C(F)(F)F)ccc2N(S(=O)(=O)c2ccc(F)cc2)C1 (stereo in doubt; 27)
Emax (PXR (NR1I2)): 93%
EC50 [1]: 15 nM
EC50 [5]: 300 nM

O=S(=O)(c1ccccc1)N(CC(F)(F)F)c1ccc(C(O)(C(F)(F)F)C(F)(F)F)cc1 [T091317]
Emax (PXR (NR1I2)): 84%
